Measurements from ChEMBL document CHEMBL1141539, “Neutral 5-substituted 4-indazolylaminoquinazolines as potent, orally active inhibitors of erbB2 receptor tyrosine kinase” (Bioorg Med Chem Lett, 2008).
≈ marks a conversion by molar mass, not a printed value.

What was measured:
[1] = Solubility in aqueous phosphate buffer at pH 7.4 after 24 hrs; format: physicochemical
[2] = Volume of distribution at steady state in dog at 1 mg/kg, iv and 2 mg/kg, po; format: ADME, organism-based, Canis lupus familiaris; conditions: in vivo, read-out: Vdss
[3] = Volume of distribution at steady state in rat at 1 mg/kg, iv and 2 mg/kg, po; format: ADME, organism-based; conditions: in vivo, read-out: Vdss
[4] = Oral bioavailability in rat at 2 mg/kg; format: ADME, organism-based; conditions: in vivo
[5] = Oral bioavailability in dog at 2 mg/kg, po; format: ADME, organism-based, Canis lupus familiaris; conditions: in vivo
[6] = Distribution coefficient, log D at pH 7.4; format: physicochemical; conditions: octanol/water
Phospholipidosis = assay: In vivo phospholipidosis in rat; format: ADME, organism-based
[7] = Permeability across dog MDCK-MDR cell membrane; format: ADME, cell-based, Canis lupus familiaris; conditions: MDCK-MDR1

C[C@@H](Oc1cccc2ncnc(Nc3ccc4c(cnn4Cc4cscn4)c3)c12)C(=O)N(C)C
solubility at 24 h [1]: 44 µM (≈ 20.8 µg/mL)

C[C@@H](Oc1cccc2ncnc(Nc3ccc4c(cnn4Cc4cccc(F)c4)c3)c12)C(=O)N(C)C
solubility at 24 h [1]: 3 µM (≈ 1.45 µg/mL)

C[C@@H](Oc1cccc2ncnc(Nc3ccc4c(cnn4Cc4nccs4)c3)c12)C(=O)N(C)C
solubility at 24 h [1]: 29 µM (≈ 13.7 µg/mL)

C[C@@H](Oc1cccc2ncnc(Nc3ccc4c(cnn4Cc4ccccn4)c3)c12)C(N)=O
solubility at 24 h [1]: 3 µM (≈ 1.32 µg/mL)

CNC(=O)[C@@H](C)Oc1cccc2ncnc(Nc3ccc4c(cnn4Cc4ccccn4)c3)c12
solubility at 24 h [1]: 4 µM (≈ 1.81 µg/mL)

C[C@@H](Oc1cccc2ncnc(Nc3ccc4c(cnn4Cc4ccccn4)c3)c12)C(=O)N(C)C
Vd [2]: 2.3 L/kg | Vd [3]: 2.1 L/kg | bioavailability [4]: 36% | bioavailability [5]: 40% | solubility at 24 h [1]: 270 µM (≈ 126 µg/mL) | logD [6]: 2.9

C[C@@H](Oc1cccc2ncnc(Nc3ccc4c(cnn4Cc4nccs4)c3)c12)C(=O)N1CCOCC1
Phospholipidosis (Phospholipidosis): Not Active | Vd [2]: 3.1 L/kg | Vd [3]: 2 L/kg | bioavailability [4]: 50% | bioavailability [5]: 36% | solubility at 24 h [1]: 101 µM (≈ 52.1 µg/mL) | logD [6]: 2.6 | Papp [7]: 10 ×10⁻⁶ cm/s
